# Results reported in publication PMC8599861, “Structures of prokaryotic ubiquitin-like protein Pup in complex with depupylase Dop reveal the mechanism of catalytic phosphate formation” (Nature Communications, 2021).
# Key:
# [1] = molecular target: T1, AcelDop (in complex with AcelPup deltaN43) (Acidothermus cellulolyticus, UniProt A0LU48); assay: X-ray crystal structures, […]-1.[…] A; type: binding; settings: with PupE deltaN43 and MgF3(H2O)- (7OYF), phosphorylated PupE, Mg2+/K+ (7OY3; ADP formed in crystal soaked with ATP) or MgF4 2- (7OYH); nucleotide site
# T1 construct: gene dop; C-terminal TEV-His6 tag cleaved, E. coli Rosetta (DE3); Pup fragment deltaN43 (PupQ, PupE or PupBSO) synthetic; with Prokaryotic ubiquitin-like protein Pup
# [2] = molecular target: T1, AcelDop (in complex with AcelPup deltaN43); assay: X-ray crystal structure, […] A; type: binding; settings: co-crystal with PupQ deltaN43 and Mg2+; nucleotide site, about 72 % occupancy
# [3] = molecular target: T1, AcelDop (in complex with AcelPup deltaN43); assay: intact mass spectrometry of phosphorylated PupBSO; type: biochemical; settings: 2 mM ATP, PupBSO deltaN43 as phosphoryl acceptor, 20 mM MgCl2, pH 8.0, 30 C
# T1 sequence (A0LU49 44-71 E71Q): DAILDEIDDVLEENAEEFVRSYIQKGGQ
# T1 sequence (A0LU48 whole entry, the tested form may be a part): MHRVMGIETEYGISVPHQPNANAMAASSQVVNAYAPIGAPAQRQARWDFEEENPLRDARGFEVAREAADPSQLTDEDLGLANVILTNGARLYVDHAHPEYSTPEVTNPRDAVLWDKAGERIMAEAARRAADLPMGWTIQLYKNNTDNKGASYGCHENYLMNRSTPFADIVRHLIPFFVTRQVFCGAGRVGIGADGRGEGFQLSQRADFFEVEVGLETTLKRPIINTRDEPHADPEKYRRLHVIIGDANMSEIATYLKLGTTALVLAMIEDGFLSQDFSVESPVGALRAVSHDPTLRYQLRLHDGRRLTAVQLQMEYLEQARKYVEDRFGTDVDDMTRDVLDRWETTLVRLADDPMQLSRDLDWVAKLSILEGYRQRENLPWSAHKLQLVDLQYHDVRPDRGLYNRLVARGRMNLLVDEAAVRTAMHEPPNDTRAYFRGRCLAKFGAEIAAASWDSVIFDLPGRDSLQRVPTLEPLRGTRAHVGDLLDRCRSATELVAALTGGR
compound,measurement,setting,value
Nc1ncnc2c1ncn2[C@@H]1O[C@H](COP(=O)(O)OP(=O)(O)O)[C@@H](O)[C@H]1O [ADP],"X-ray crystal structures, 1.75-1.88 A",[1],We solved the structure of a Dop-Pup complex with a square planar MgFx species bound between ADP and Pup
Nc1ncnc2c1ncn2[C@@H]1O[C@H](COP(=O)(O)OP(=O)(O)CP(=O)(O)O)[C@@H](O)[C@H]1O [AMP-PCP],"X-ray crystal structure, 1.65 A",[2],crystals of the enzyme in complex with the PupQ fragment and AMP-PCP
Nc1ncnc2c1ncn2[C@@H]1O[C@H](COP(=O)(O)OP(=O)(O)OP(=O)(O)O)[C@@H](O)[C@H]1O [ATP],intact mass spectrometry of phosphorylated PupBSO,[3],Dop indeed forms a phosphorylated PupBSO species in the presence of ATP
